Three compounds from ChEMBL document CHEMBL1201862, “PubChem BioAssay data set” (2004) can be followed below.

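Following 48 hours of exposure in 96-well plates, responses at five concentrations were used to interpolate endpoints linearly. GI50 is the concentration that inhibits growth by half.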 Calls of active or inactive are those of the source. Cut-off read from the data, not from the text of the source: active = GI50 up to about 1.1 µM and inactive = higher.

Some test systems named below: HCT-15; SF-295; OVCAR-5; UACC-62; COLO 205; TK-10; HL-60; NCI-H522; LOX IMVI; HOP-92; DMS-114; SR; RXF 393; MOLT-4; UACC-257; EKVX; NCI-H226; CAKI-1; HT-29; MCF7.
Holding throughout (test): inhibition of tumour cell growth, NCI panel, 48 h

In the case of `C=C(CN(C)C)C(=O)c1ccccc1OC`, the GI50 with HCT-15 was 15.9 µM; with SF-295, > 56.9 µM (inactive); in the assay with OVCAR-5, 19.1 µM (inactive); in the assay on UACC-62, 21 µM (inactive); in the assay on COLO 205, 3.53 µM (inactive); in the assay on TK-10, 16.1 µM (inactive). The GI50 is 3.23 µM (inactive) in the assay with HL-60; 2.04 µM (inactive) in the assay with NCI-H522; 13.8 µM (inactive) in the assay on LOX IMVI; 14.7 µM (inactive) in the assay with HOP-92; 21.1 µM (inactive) in the assay on DMS-114; 10.2 µM (inactive) in the assay with SR. Also, the GI50 was 7.85 µM (inactive) in the assay on RXF 393; 2.46 µM (inactive) in the assay with MOLT-4; 15.6 µM (inactive) with UACC-257; 25.8 µM (inactive) in the assay with EKVX; 37.2 µM (inactive) in the assay on NCI-H226; 9.82 µM (inactive) with CAKI-1. The GI50 with HT-29 was 20.5 µM (inactive).

`CC(=O)OC(C)(C)/C=C/C(=O)[C@](C)(O)[C@H]1[C@H](O)C[C@@]2(C)[C@@H]3CC=C4[C@@H](C=C(O)C(=O)C4(C)C)[C@]3(C)C(=O)C[C@]12C` [CUCURBITACIN E]: the GI50 in the assay on HCT-15 was 0.0278 µM; in the assay with SF-295, 0.0348 µM (active); with OVCAR-5, 0.186 µM (active); in the assay on UACC-62, 0.065 µM (active); in the assay with COLO 205 it was 0.0191 µM (active); in the assay on TK-10 it was 0.0479 µM (active). For the same compound, the GI50 in the assay with HL-60 was 0.0313 µM (active); in the assay with NCI-H522, 0.0407 µM (active); in the assay on LOX IMVI it was 0.0101 µM (active); in the assay with HOP-92, 0.0302 µM (active); in the assay with MCF7 it was 0.054 µM (active); in the assay on DMS-114, 0.0715 µM (active). Besides, the GI50 is 0.0177 µM (active) with RXF 393; 0.246 µM (active) in the assay on MOLT-4; 0.0385 µM (active) in the assay on UACC-257; 0.118 µM (active) in the assay on EKVX; 0.0327 µM (active) in the assay with NCI-H226; 0.0216 µM (active) with CAKI-1. The GI50 in the assay on HT-29 is 0.0202 µM (active).

With `O=P(O)(NCCCl)NCCCl` [PALIFOSFAMIDE], the GI50 in the assay on HCT-15 is > 10 µM; in the assay on SF-295 it was 54.1 µM (inactive); in the assay on OVCAR-5, > 10 µM (inactive); in the assay on UACC-62, 38.6 µM (inactive); with COLO 205, > 100 µM (inactive); in the assay on TK-10 it was > 10 µM (inactive). The GI50 is > 51.3 µM (inactive) in the assay on HL-60; > 100 µM (inactive) with NCI-H522; 29.9 µM (inactive) in the assay with LOX IMVI; > 100 µM (inactive) in the assay on HOP-92; > 100 µM (inactive) with MCF7; 7.33 µM (inactive) in the assay with DMS-114. Further, the GI50 was 4.95 µM (inactive) with SR; > 10 µM (inactive) in the assay with RXF 393; 60.3 µM (inactive) in the assay with MOLT-4; > 10 µM (inactive) in the assay on UACC-257; > 10 µM (inactive) in the assay with EKVX; > 100 µM (inactive) with NCI-H226. Moreover, the GI50 with CAKI-1 was 39.8 µM (inactive); with HT-29 it was > 10 µM (inactive).
